Measured values published in US20060069132A1, “Azolecarboxamide herbicides” (priority 2004, published 2006).

Assays:
[1] = test system: wheat; assay: Test B postemergence herbicide test; assay type: in vivo, Triticum aestivum; set-up: key to Wheat plant response rating: 0 = no effect, 100 = complete control
Method in brief: (§1)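 Plants grow to 1- to 4-leaf stage (2–18 cm) for postemergence spraying, or to 2-leaf stage for the paddy test. Formulated compound is applied. Greenhouse holding lasts 13–15 days. Response is scored visually relative to controls, 0 no effect to 100 complete control; a dash means no result.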

[2] = test system: pigweed; assay: Test B pre-/postemergence herbicide test; assay type: in vivo, Amaranthus retroflexus
Method in brief: (§2)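 Test chemicals in a non-phytotoxic solvent mixture with surfactant were applied preemergence to seeded species and postemergence to plants 2-18 cm tall (1- to 4-leaf stage); rice and barnyardgrass were also tested in a flooded paddy at the 2-leaf stage. Visual rating versus controls after 13-15 days in greenhouse, scale 0 (no effect) to 100 (complete control).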

[3] = test system: small flower umbrella sedge; assay: Test B flooded paddy test; assay type: in vivo, Cyperus difformis; conditions: scale 0 to 100 (0 no effect, 100 complete control)
Method in brief: (§3)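 Visual control ratings, 0–100 versus untreated controls, taken after 13 to 15 days in the greenhouse. Blackgrass received a postemergence spray at the 1- to 4-leaf stage (2–18 cm); ducksalad, umbrella sedge and barnyardgrass were flooded-paddy treated at 2 leaves.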

[4] = test system: blackgrass; assay: Test B postemergence herbicide test; assay type: in vivo, Alopecurus myosuroides
Method in brief: as §3

[5] = test system: barnyardgrass; assay: Test B flooded paddy test; assay type: in vivo, Echinochloa crus-galli; conditions: scale 0 to 100 (0 no effect, 100 complete control)
Method in brief: as §3

[6] = test system: velvetleaf; assay: Test A pre-/postemergence herbicide test; assay type: in vivo, Abutilon theophrasti; conditions: for Plant response rating, Velvetleaf: Postemergence; for Velvetleaf plant response rating: Preemergence
Method in brief: (§4)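 Plants are held in greenhouse about ten days after treatment, then compared with untreated controls and scored 0 (no effect) to 100 (complete control). Preemergence dosing is a directed soil spray on sown sandy loam; postemergence dosing is spray to runoff at 2–10 cm height.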

[7] = test system: large crabgrass; assay: Test B pre-/postemergence herbicide test; assay type: in vivo, Digitaria sanguinalis
Method in brief: as §2

[8] = test system: cocklebur; assay: Test B pre-/postemergence herbicide test; assay type: in vivo, Xanthium strumarium
Method in brief: (§5)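 Response was scored visually 13 to 15 days after treatment against untreated greenhouse controls, 0 meaning no effect and 100 complete control. Formulations (solvent mixture plus surfactant) went onto soil after planting, onto foliage of 1- to 4-leaf plants, and onto 2-leaf plants in a flooded paddy set including rice and barnyardgrass.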

[9] = test system: barnyardgrass; assay: Test A pre-/postemergence herbicide test; assay type: in vivo, Echinochloa crus-galli; conditions: for Plant response rating, Barnyardgrass: Postemergence; for Barnyardgrass plant response rating: Preemergence
Method in brief: as §4

[10] = test system: morningglory; assay: Test A pre-/postemergence herbicide test; assay type: in vivo, Ipomoea spp.; conditions: for Plant response rating, Morningglory: Postemergence; for Morningglory plant response rating: Preemergence
Method in brief: as §4

[11] = test system: giant foxtail; assay: Test A pre-/postemergence herbicide test; assay type: in vivo, Setaria faberi; conditions: for Plant response rating, Foxtail, Giant: Postemergence; for Foxtail, Giant plant response rating: Preemergence
Method in brief: as §4

[12] = test system: morningglory; assay: Test B pre-/postemergence herbicide test; assay type: in vivo, Ipomoea coccinea
Method in brief: as §5

[13] = test system: barnyardgrass; assay: Test B pre-/postemergence herbicide test; assay type: in vivo, Echinochloa crus-galli
Method in brief: as §5

[14] = test system: ducksalad; assay: Test B flooded paddy test; assay type: in vivo, Heteranthera limosa; conditions: scale 0 to 100 (0 no effect, 100 complete control)
Method in brief: as §3

[15] = test system: corn; assay: Test B pre-/postemergence herbicide test; assay type: in vivo, Zea mays
Method in brief: as §2

[16] = test system: lambsquarters; assay: Test B pre-/postemergence herbicide test; assay type: in vivo, Chenopodium album
Method in brief: as §2

[17] = test system: Surinam grass; assay: Test B pre-/postemergence herbicide test; assay type: in vivo, Urochloa decumbens
Method in brief: as §2

[18] = test system: velvetleaf; assay: Test B pre-/postemergence herbicide test; assay type: in vivo, Abutilon theophrasti
Method in brief: as §2

[19] = test system: redroot pigweed; assay: Test A pre-/postemergence herbicide test; assay type: in vivo, Amaranthus retroflexus; conditions: for Plant response rating, Pigweed: Postemergence; for Pigweed plant response rating: Preemergence
Method in brief: as §4

[20] = test system: rice; assay: Test B flooded paddy test; assay type: in vivo, Oryza sativa; conditions: scale 0 to 100 (0 no effect, 100 complete control)
Method in brief: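 Paddy species grown to the 2-leaf stage under flooding; blackgrass sprayed postemergence at 2–18 cm (1- to 4-leaf stage). Plants kept in a greenhouse for 13 to 15 days, then visually rated against controls on 0 (no effect) to 100 (complete control).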

[21] = test system: giant foxtail; assay: Test B pre-/postemergence herbicide test; assay type: in vivo, Setaria faberi
Method in brief: as §2

[22] = test system: wild oat; assay: Test B postemergence herbicide test; assay type: in vivo, Avena fatua
Method in brief: as §1

[23] = test system: large crabgrass; assay: Test A pre-/postemergence herbicide test; assay type: in vivo, Digitaria sanguinalis; conditions: for Plant response rating, Crabgrass, Large: Postemergence; for Crabgrass, Large plant response rating: Preemergence
Method in brief: as §4

[24] = Postemergence, 500 g ai/ha, visual rating after 13 to 15 days, scale 0 (no effect) to 100 (complete control)
[25] = Preemergence, 500 g ai/ha, scale 0 to 100
[26] = preemergence, 125 g ai/ha, 0 to 100 scale, 0 is no effect, 100 is complete control
[27] = 1000 g ai/ha, visual rating, 13 to 15 days
[28] = Postemergence, 125 g ai/ha, scale 0 (no effect) to 100 (complete control)
[29] = 500 g ai/ha, 0 to 100 scale, 0 no effect, 100 complete control
[30] = 2000 g ai/ha, 0 to 100 scale, 0 no effect, 100 complete control
[31] = 500 g ai/ha, visual rating, 0 to 100 scale (0 no effect, 100 complete control)
[32] = Postemergence, 250 g ai/ha, scale 0 (no effect) to 100 (complete control)
[33] = postemergence, 62 g ai/ha, scale 0 to 100
[34] = Postemergence, 500 g ai/ha, scale 0 (no effect) to 100 (complete control)
[35] = postemergence, 125 g ai/ha, scale 0 to 100

CCN(CC)C(=O)c1cccc(NC(=O)c2cc(C(C)(C)C)nn2CCF)c1 [Compound 36]
Plant response rating, Wheat [1, 24]: 30
Plant response rating, Pigweed [2, 24]: 90
Pigweed plant response rating [2, 25]: 100
Plant response rating, Pigweed [2, 26]: 90
Sedge, Umbrella plant response rating [3, 27]: 60
Blackgrass plant response rating [4, 28]: 10
Plant response rating, Blackgrass [4, 24]: 20
Barnyardgrass plant response rating [5, 27]: 70
Plant response rating, Velvetleaf [6, 29]: 15
Plant response rating, Velvetleaf [6, 30]: 20
Velvetleaf plant response rating [6, 31]: 20
Velvetleaf plant response rating [6, 30]: 90
Crabgrass, Large plant response rating [7, 28]: 20
Plant response rating, Crabgrass, Large [7, 24]: 20
Crabgrass, Large plant response rating [7, 25]: 20
Cocklebur plant response rating [8, 28]: 30
Plant response rating, Cocklebur [8, 24]: 50
Cocklebur plant response rating [8, 25]: 0
Plant response rating, Barnyardgrass [9, 29]: 35
Plant response rating, Barnyardgrass [9, 30]: 80
Barnyardgrass plant response rating [9, 31]: 45
Barnyardgrass plant response rating [9, 30]: 75
Plant response rating, Morningglory [10, 29]: 10
Plant response rating, Morningglory [10, 30]: 10
Morningglory plant response rating [10, 31]: 20
Morningglory plant response rating [10, 30]: 70
Plant response rating, Foxtail, Giant [11, 29]: 20
Plant response rating, Foxtail, Giant [11, 30]: 35
Foxtail, Giant plant response rating [11, 31]: 5
Foxtail, Giant plant response rating [11, 30]: 85
Morningglory plant response rating [12, 25]: 10
Plant response rating, Morningglory [12, 26]: 10
Barnyardgrass plant response rating [13, 28]: 20
Plant response rating, Barnyardgrass [13, 24]: 20
Barnyardgrass plant response rating [13, 25]: 80
Ducksalad plant response rating [14, 27]: 90
Corn plant response rating [15, 25]: 10
Lambsquarters plant response rating [16, 28]: 80
Plant response rating, Lambsquarters [16, 24]: 90
Lambsquarters plant response rating [16, 25]: 100
Plant response rating, Lambsquarters [16, 26]: 80
Plant response rating, Surinam Grass [17, 24]: 10
Surinam Grass plant response rating [17, 25]: 50
Plant response rating, Surinam Grass [17, 26]: 10
Plant response rating, Velvetleaf [18, 24]: 40
Velvetleaf plant response rating [18, 25]: 50
Plant response rating, Velvetleaf [18, 26]: 20
Plant response rating, Pigweed [19, 29]: 80
Plant response rating, Pigweed [19, 30]: 85
Pigweed plant response rating [19, 31]: 95
Pigweed plant response rating [19, 30]: 100
Rice plant response rating [20, 27]: 40
Foxtail, Giant plant response rating [21, 28]: 20
Plant response rating, Foxtail, Giant [21, 24]: 30
Foxtail, Giant plant response rating [21, 25]: 30
Plant response rating, Foxtail, Giant [21, 26]: 0
Oat, Wild plant response rating [22, 28]: 20
Plant response rating, Oat, Wild [22, 24]: 20
Plant response rating, Crabgrass, Large [23, 29]: 10
Plant response rating, Crabgrass, Large [23, 30]: 10
Crabgrass, Large plant response rating [23, 31]: 10
Crabgrass, Large plant response rating [23, 30]: 70

CN1Cc2c(NC(=O)c3cc(C(C)(C)C)nn3C)cccc2C1=O [Compound 54]
Wheat plant response rating ([1]; 250 g ai/ha, scale 0 to 100, 0 no effect, 100 complete control, preemergence): 0
Wheat plant response rating [1, 32]: 0
Wheat plant response rating [1, 33]: 0
Pigweed plant response rating [2, 32]: 10
Pigweed plant response rating [2, 33]: 0
Sedge, Umbrella plant response rating [3, 27]: 0
Blackgrass plant response rating [4, 32]: 0
Blackgrass plant response rating [4, 33]: 0
Barnyardgrass plant response rating [5, 27]: 0
Plant response rating, Velvetleaf [6, 30]: 5
Velvetleaf plant response rating [6, 31]: 0
Velvetleaf plant response rating [6, 30]: 0
Crabgrass, Large plant response rating [7, 32]: 0
Crabgrass, Large plant response rating [7, 33]: 0
Cocklebur plant response rating [8, 32]: 10
Cocklebur plant response rating [8, 33]: 10
Plant response rating, Barnyardgrass [9, 29]: 10
Plant response rating, Barnyardgrass [9, 30]: 10
Barnyardgrass plant response rating [9, 31]: 5
Barnyardgrass plant response rating [9, 30]: 25
Plant response rating, Morningglory [10, 29]: 0
Plant response rating, Morningglory [10, 30]: 10
Morningglory plant response rating [10, 31]: 0
Morningglory plant response rating [10, 30]: 15
Plant response rating, Foxtail, Giant [11, 29]: 10
Plant response rating, Foxtail, Giant [11, 30]: 5
Foxtail, Giant plant response rating [11, 31]: 0
Foxtail, Giant plant response rating [11, 30]: 15
Morningglory plant response rating [12, 33]: 10
Barnyardgrass plant response rating [13, 32]: 0
Barnyardgrass plant response rating [13, 33]: 0
Ducksalad plant response rating [14, 27]: 0
Corn plant response rating [15, 33]: 10
Lambsquarters plant response rating [16, 32]: 40
Lambsquarters plant response rating [16, 33]: 40
Surinam Grass plant response rating [17, 33]: 0
Velvetleaf plant response rating [18, 32]: 0
Velvetleaf plant response rating [18, 33]: 0
Plant response rating, Pigweed [19, 29]: 20
Plant response rating, Pigweed [19, 30]: 20
Pigweed plant response rating [19, 31]: 10
Pigweed plant response rating [19, 30]: 65
Rice plant response rating [20, 27]: 0
Foxtail, Giant plant response rating [21, 32]: 0
Foxtail, Giant plant response rating [21, 33]: 0
Oat, Wild plant response rating [22, 32]: 0
Oat, Wild plant response rating [22, 33]: 0
Plant response rating, Crabgrass, Large [23, 29]: 10
Plant response rating, Crabgrass, Large [23, 30]: 15
Crabgrass, Large plant response rating [23, 31]: 25
Crabgrass, Large plant response rating [23, 30]: 35

Cc1nn(C(C)(C)C)nc1C(=O)Nc1cccc(C(=O)N2CC=CC2)n1 [Compound 441]
Wheat plant response rating ([1]; 500 g ai/ha, scale 0 to 100, 0 no effect, 100 complete control, preemergence): 30
Wheat plant response rating [1, 34]: 30
Wheat plant response rating [1, 35]: 20
Pigweed plant response rating [2, 34]: 20
Pigweed plant response rating [2, 35]: 20
Sedge, Umbrella plant response rating ([3]; 125 g ai/ha): 0
Blackgrass plant response rating [4, 34]: 40
Blackgrass plant response rating [4, 35]: 20
Barnyardgrass plant response rating ([5]; 125 g ai/ha): 0
Crabgrass, Large plant response rating [7, 34]: 0
Crabgrass, Large plant response rating [7, 35]: 0
Cocklebur plant response rating [8, 34]: 10
Cocklebur plant response rating [8, 35]: 10
Morningglory plant response rating [12, 34]: 0
Morningglory plant response rating [12, 35]: 0
Barnyardgrass plant response rating [13, 28]: 0
Barnyardgrass plant response rating [13, 34]: 0
Ducksalad plant response rating ([14]; 125 g ai/ha): 0
Corn plant response rating [15, 34]: 30
Corn plant response rating [15, 35]: 0
Lambsquarters plant response rating [16, 34]: 20
Lambsquarters plant response rating [16, 35]: 20
Surinam Grass plant response rating [17, 34]: 0
Surinam Grass plant response rating [17, 35]: 0
Velvetleaf plant response rating [18, 34]: 0
Velvetleaf plant response rating [18, 35]: 0
Rice plant response rating ([20]; 125 g ai/ha): 0
Foxtail, Giant plant response rating [21, 34]: 0
Foxtail, Giant plant response rating [21, 35]: 0
Oat, Wild plant response rating [22, 34]: 40
Oat, Wild plant response rating [22, 35]: 30
